We go through five molecules from patent publication US10087233B2, “Coagulation factor VIII with reduced immunogenicity” (IMNATE SARL, priority 2012, dated 2018).

Test [1] addresses T1, CD1d tetramers (Mus musculus, UniProt P11609).
T1 construct: purchased ProImmune
T1 sequence (P11609 22-305 limits assumed): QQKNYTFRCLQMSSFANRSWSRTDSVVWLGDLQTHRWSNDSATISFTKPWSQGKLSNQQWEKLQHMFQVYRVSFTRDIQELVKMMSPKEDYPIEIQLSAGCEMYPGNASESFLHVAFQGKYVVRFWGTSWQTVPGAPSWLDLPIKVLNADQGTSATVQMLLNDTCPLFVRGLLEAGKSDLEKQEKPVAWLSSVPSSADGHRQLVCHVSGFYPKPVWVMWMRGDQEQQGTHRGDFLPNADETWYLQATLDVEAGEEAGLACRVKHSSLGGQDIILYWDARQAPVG
T1 sequence (P01887 21-119 partner): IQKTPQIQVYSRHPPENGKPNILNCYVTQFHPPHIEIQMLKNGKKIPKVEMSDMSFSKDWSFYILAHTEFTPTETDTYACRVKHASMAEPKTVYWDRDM
The test is described as follows: CD1d tetramers loaded with peptide, detection of NKT cells among CD4+ spleen cells. The class given is binding. Conditions: CD4+ spleen cells of naïve mice; FIG. 1. As for the experimental part:
A peptide encompassing SEQ ID NO: 1 was obtained by chemical synthesis. This peptide was used to load CD1d tetramers (ProImmune) by overnight incubation.
NKT cells were prepared from the spleen of naïve mice by depletion of all CD4(−) cells using magnetic beads.
CD4+ cells were then incubated with CD1d tetramers loaded by peptide of SEQ ID NO: 1 (P28 WT in FIG. 1), which corresponds to aminoacid sequence 190 to 209.

In test [2] the test system is U937 cells. The test is described as follows: CD1d surface expression on U937 cells incubated with peptide (FACS). It counts as cell-based, human. The following applies: as example 4; FIG. 6. As for the experimental part: To determine whether human antigen-presenting cells had the capacity to process and present a peptide epitope in the context of the CD1d molecule, the human macrophage cell line U937 was used.
The percentage of resting U937 cells expressing CD1d is low as detected with a specific anti-CD1d antibody. It was reasoned that, if U937 cells were incubated with a peptide having the sequence motif enabling it to bind to CD1d, then this should be detectable by increased expression of CD1d at cell surface. As observed for peptides encompassing MHC class II epitopes, the binding of a peptide stabilizes the conformation of the molecule (class II, or CD1d in the present case), allowing the complex to be anchored at cell surface and reducing its intracellular recycling.
U937 cells (7×10^5 cells) were incubated for 24h at 37° C. with 5 μg of peptide encompassing CD1d binding motifs or controls. The cells were then washed and incubated with fluorescence-labeled antibodies specific to CD1d and the number of positive cells evaluated using a FACS system.
Controls include (from left to right) unloaded U937, cells incubated with alpha-gal-ceramide and a conventional class II-restricted epitope (MHCII-MOG). The experiment includes sequences of factor VIII of either human (SEQ ID NO: 5) or mouse (SEQ ID NO: 6) origin corresponding to aminoacids 188-204 of the factor VIII sequence. […]

Test [3] has as its system NKT cells. The test is described as follows: Immunization with loaded JAWS2 cells, CD4+/CD8+ lineage of DX5/CD160 cells binding CD1d tetramers. The class given is in vivo, factor VIII KO mice. Here is the method: To determine the cell lineage to which NKT cells belonged, an experiment was performed as described in Example 2. Thus, JAWS2 cells were loaded with either peptide of SEQ ID NO: 3, B-domain-deleted factor VIII, alpha-gal-ceramide or kept unloaded before intraperitoneal (IP) injection in factor VIII KO mice (2×10^6 cells per mouse). Five days after intraperitoneal injections, the mice were sacrificed and the splenocytes prepared. Cell suspensions were then reacted with CD1d tetramers unloaded or loaded with peptide of SEQ ID NO: 3 or with alpha-gal-ceramide.
For faccs analysis, cells binding CD1d tetramers were labeled with DX5- and CD160-specific antibodies and either anti-CD4 or anti-CD8 antibodies. The table summarizes the results.

In test [4] the test system is NKT cells. Kind of test: Immunization with JAWS2 cells loaded with peptide, tetramer detection of NKT cells in spleen. The class given is in vivo, factor VIII KO mice. Conditions: tetramers loaded with peptide, FIG. 2. Here is the method:
JAWS2 cells express CD1d but not MHC class II determinants.
JAWS2 cells were incubated 2 h at 37° C. with peptide of SEQ ID NO: 1 (10 μg/ml) and thoroughly washed twice. Cells were then treated with mitomycin to block cell division and washed 4 times to eliminate mitomycin. A cell suspension containing 2×10^6 cells in physiological serum was injected by the intraperitoneal route in each of a series of 3 naïve factor VIII KO mice. As a control, 3 naïve factor VIII KO mice received the same number of JAWS2 cells which had not been incubated with peptide of SEQ ID NO: 1.
Five days after IP injection, the mice were sacrificed and their spleen prepared as above using magnetic beads to eliminate all CD4(−) cells.
CD4+ cells were then incubated with tetramers loaded with peptide of SEQ ID NO: 1.

In test [5] the test system is human iNKT cells. The test is described as follows: Cell cluster formation of human iNKT cells with peptide-loaded U937 cells. It counts as cell-based. Conditions: iNKT cells with loaded U937 cells 1:1, 2 weeks, IL-2; FIG. 5. Here is the method: In order to establish whether human PBMC contained cells reacting with a CD1d-binding peptide epitope, invariant NKT (iNKT) cells were prepared from a buffy coat using magnetic beads coated with an antibody specific to the Valpha24-Jalpha18 chain of the T cell receptor (so-called invariant chain).
Said human iNKT cells (10^5/condition) were then incubated with mitomycine-C treated U937 cells (Ratio 1:1) loaded with 5 μg of either peptide encompassing aminoacid residues 188-204 of human factor VIII (SEQ ID NO: 5) or with control peptide (MHCII-MOG). Incubation was carried out for 2 weeks at 37° C. in RPMI containing 10% of fetal calf serum and 50 U/ml of human recombinant IL-2.
Culture plates were examined by eye for the presence of cell clusters. […] FIG. 5 illustrates the average of three microscopic field count of this observation (minimum 10 cells/cluster).

[6] abbreviates: mice given JAWS2 loaded with the labelled substance, tetramers loaded with Alpha-gal-cer.
Where [7] appears, read: mice given JAWS2 loaded with the labelled substance, tetramers loaded with Peptide SEQ ID NO: 3.
The mark [8] stands for this setting: mice given JAWS2 loaded with the labelled substance, unloaded tetramers.
[9] abbreviates: mice given unloaded JAWS2 (natural repertoire), tetramers loaded with the labelled substance.

On to “QTLHKFILLFA (homo sapiens) [SEQ ID NO: 3, human factor VIII 190-200]”, for which the “CD1d binding motif / NKT cells detected by peptide-loaded tetramers (in words)” value in test [1] is reported as “major CD1d binding motif”. Further, the “expression of CD1d at the surface of U937 cells (in words)” value in test [2] is “did not increase”. In addition, the “Number of DX5/CD160 cells, CD4+” value in test [3] (setting [6]) was 2.2 ×10^3; in test [3] (setting [7]), 47 ×10^3; in test [3] (setting [8]), 0.2 ×10^3; in test [3] (setting [9]) it was 39 ×10^3. The “Number of DX5/CD160 cells, CD8+” value in test [3] (setting [6]) is given as 0.8 ×10^3; in test [3] (setting [7]), 4.1 ×10^3; in test [3] (setting [8]), 0.1 ×10^3; in test [3] (setting [9]) it was 3.5 ×10^3.

Turning to “QTLHKFILLFAVFDEGKSWH (listed as Homo sapiens) [SEQ ID NO: 1, human factor VIII 190-209]”, in test [1], the “% of CD4+ T cells detected by CD1d tetramers loaded with peptide” value was around 1%. Moreover, the “proportion of NKT cells specific for peptide when peptide is presented by JAWS2 cells” value in test [4] (5 days after IP injection of 2×10^6 peptide-loaded JAWS2 cells) is reported as 16%. The “proportion of NKT cells specific for peptide, natural repertoire” value in test [4] (control mice given JAWS2 cells not incubated with peptide) is given as 8%.

“AVFDEGKSWHS (homo sapiens) [SEQ ID NO: 4, human factor VIII 200-210]”: in test [1], the “CD1d binding motif / NKT cells detected by peptide-loaded tetramers (in words)” value is on record as “limited though significant”.

For the molecule `CCCCCCCCCCCCCCCCCCCCCCCCCC(=O)N[C@@H](CO[C@H]1O[C@H](CO)[C@H](O)[C@H](O)[C@H]1O)[C@H](O)[C@H](O)CCCCCCCCCCCCCC` [Alpha-gal-cer, alpha-gal-ceramide, reference compound], the “presence of cell clusters (clumps of cells)” value in test [5] is “to the same extent”. Besides, the “Number of DX5/CD160 cells, CD4+” value is 2.3 ×10^3 in test [3] (setting [6]), 46 ×10^3 in test [3] (setting [7]), 0.1 ×10^3 in test [3] (setting [8]) and 1.2 ×10^3 in test [3] (setting [9]). Further, the “Number of DX5/CD160 cells, CD8+” value was 1.8 ×10^3 in test [3] (setting [6]), 1.9 ×10^3 in test [3] (setting [7]), 0 ×10^3 in test [3] (setting [8]) and 1.3 ×10^3 in test [3] (setting [9]).

Regarding “KTQTLHKFILLFAVFDE (listed as Homo sapiens) [SEQ ID NO: 5, human factor VIII 188-204]”, the “presence of cell clusters (clumps of cells)” value in test [5] is given as “clumps of cells form”.
